Experimental findings from US20030215462A1, “Use of UGT inhibitors to increase bioavailability” (priority 2001, published 2003) are described below.

Assay type in all cases: biochemical
Test [1] relates to T1, UGT enzymes of human liver microsomes.
T1 construct: percentage of control metabolism, 7-HFC glucuronidation; percentage of control metabolism, 7-HFC glucuronidation
As to the kind of experiment: Inhibition of 7-HFC glucuronidation in human liver microsomes. The following applies: for % of control metabolism (SD, n = 3), 7-HFC glucuronidation: 7-HFC 50 μM, human liver microsomes 100 μg/ml, 15 min.

In test [2] the target is T2, UGT enzymes of human liver microsomes (Homo sapiens, UniProt P16662).
T2 construct: residual metabolism (percentage of control), zidovudine glucuronidation; other: liver lot 062101; residual metabolism (percentage of control), zidovudine glucuronidation; residual metabolism (percentage of control)
T2 sequence (P16662 1-529): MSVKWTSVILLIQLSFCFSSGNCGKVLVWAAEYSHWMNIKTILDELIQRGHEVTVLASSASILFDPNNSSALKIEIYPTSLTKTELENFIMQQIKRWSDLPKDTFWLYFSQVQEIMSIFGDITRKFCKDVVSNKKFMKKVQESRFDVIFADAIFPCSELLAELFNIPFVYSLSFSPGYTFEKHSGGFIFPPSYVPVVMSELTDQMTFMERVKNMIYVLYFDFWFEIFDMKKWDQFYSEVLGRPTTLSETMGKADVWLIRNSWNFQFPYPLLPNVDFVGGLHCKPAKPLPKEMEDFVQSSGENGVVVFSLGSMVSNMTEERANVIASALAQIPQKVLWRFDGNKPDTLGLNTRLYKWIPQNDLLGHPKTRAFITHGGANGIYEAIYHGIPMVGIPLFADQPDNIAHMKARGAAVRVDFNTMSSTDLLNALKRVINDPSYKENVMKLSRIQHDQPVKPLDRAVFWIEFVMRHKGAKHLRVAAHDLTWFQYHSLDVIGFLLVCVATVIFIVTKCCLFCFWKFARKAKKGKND
As to the kind of experiment: Inhibition of zidovudine glucuronidation in human liver microsomes. The note with it: liver lot 062101. As for the experimental part: Compounds were eluted using a binary solvent gradient system where solvent A was dilute phosphoric acid (pH 3) and solvent B was acetonitrile.
Standardized incubations utilized 500 μM zidovudine substrate, 1 mg/ml microsomal protein, 5 mM UDPGA and a 30 min incubation time. […] Int.

The subject of test [3] is UGT enzymes of human liver microsomes. The test can be described thus: Inhibition of raloxifene glucuronidation (G1, G2) in human liver microsomes. An excerpt: Compounds were eluted using a binary solvent gradient system. […] Solvent B was methanol. […] Detection was at 280 nm.

Values joined by “and” are separate entries in the source; they are usually repeats but may differ in a detail not shown here. Equal entries are not always repeated.

As to `Cc1cc(=O)oc2cc(O)ccc12` [4-Methylumbelliferone, reference compound], in test [1] (inhibitor 100 μM), the “percentage of control metabolism, 7-HFC glucuronidation” value (shortened to “percentage of control metabolism”) is listed as 78 (1) % and the “% of control metabolism (SD, n = 3), 7-HFC glucuronidation” value is reported as 78 (1) %. For the same compound, in test [1] (inhibitor 200 μM), the “percentage of control metabolism” value is listed as 64 (1) % and the “% of control metabolism (SD, n = 3), 7-HFC glucuronidation” value is 64 (1) %. Besides, in test [1] (inhibitor 500 μM), the “percentage of control metabolism” value is 45 (1) % and 47 (2) %; the “% of control metabolism (SD, n = 3), 7-HFC glucuronidation” value was 45 (1), % and 47 (2) %. Further, in test [2] (inhibitor 500 μM), the “residual metabolism (percentage of control), zidovudine glucuronidation” value was 81 (2) %. For the same compound, in test [3], the “% of control metabolism, raloxifene G1” value is 35 (3), 39 (2) % and 37 (1), 40 (1) % and 51 (1), 53 (2) % and 69 (4), 71 (8) %; the “% of control metabolism, raloxifene G2” value is 35 (3), 39 (2) % and 37 (1), 40 (1) % and 51 (1), 53 (2) % and 69 (4), 71 (8) %.
`O=C(O)C=Cc1ccccc1` [Cinnamic acid]: the “% of control metabolism (SD, n = 3), 7-HFC glucuronidation” value in test [1] (inhibitor 500 μM) is 94 (2) %. For the same compound, the “residual metabolism (percentage of control), zidovudine glucuronidation” value in test [2] (inhibitor 500 μM) is 97 (3) %.
As to `CC(C)=CCC/C(C)=C/CO` [Geraniol], the “% of control metabolism (SD, n = 3), 7-HFC glucuronidation” value in test [1] (inhibitor 500 μM) is listed as 75 (0) %. For the same compound, the “residual metabolism (percentage of control), zidovudine glucuronidation” value is 77 (5) % in test [2] (inhibitor 100 μM); 62 (3) % in test [2] (inhibitor 200 μM); 28 (3) % and 25 (0) % in test [2] (inhibitor 500 μM); 9 (1) % in test [2] (inhibitor 1000 μM).
For `COc1ccc2c(c1)c(CC(=O)O)c(C)n2C(=O)c1ccc(Cl)cc1` [Indomethacin, reference compound], the “% of control metabolism (SD, n = 3), 7-HFC glucuronidation” value in test [1] (inhibitor 100 μM) is 82 (0) %; in test [1] (inhibitor 200 μM), 73 (1) %; in test [1] (inhibitor 500 μM) it was 49 (2), % and 48 (1) %. The “residual metabolism (percentage of control), zidovudine glucuronidation” value in test [2] (inhibitor 500 μM) is recorded as 68 (7) %.
As to `C=CC(C)(O)CCC=C(C)C` (stereo not shown) [Linalool], the “% of control metabolism (SD, n = 3), 7-HFC glucuronidation” value in test [1] (inhibitor 500 μM) is 86 (2) %. Also, the “residual metabolism (percentage of control), zidovudine glucuronidation” value in test [2] (inhibitor 500 μM) is reported as 73 (5) %.
As to `CC(=O)OC1CC(C)CCC1C(C)C` (stereo not shown) [Menthyl acetate], the figures for the “residual metabolism (percentage of control), zidovudine glucuronidation” value in test [2] (inhibitor 200 μM), in test [2] (inhibitor 500 μM) and in test [2] (inhibitor 1000 μM) were 64 (2) %, 35 (1) % and 20 (1) %, respectively.
As to `CC1=C(/C=C/C(C)=C/C=C/C(C)=C/CO)C(C)(C)CCC1` [Retinol], the figures for the “percentage of control metabolism” value in test [1] (inhibitor 100 μM), in test [1] (inhibitor 200 μM) and in test [1] (inhibitor 500 μM) were 59 (1) %, 39 (1) % and 25 (1) %, respectively. Also, the figures for the “% of control metabolism (SD, n = 3), 7-HFC glucuronidation” value in test [1] (inhibitor 100 μM), in test [1] (inhibitor 200 μM) and in test [1] (inhibitor 500 μM) were 59 (1) %, 39 (1) % and 25 (1) %, respectively. Also, the “residual metabolism (percentage of control), zidovudine glucuronidation” value in test [2] (inhibitor 500 μM) was 76 (2) %.
For `COc1cc(C=O)ccc1O` [Vanillin], the “residual metabolism (percentage of control), zidovudine glucuronidation” value in test [2] (inhibitor 500 μM) was 81 (4) %.
Consider `COc1cc(CO)ccc1O` [Vanillyl alcohol], for which the “% of control metabolism (SD, n = 3), 7-HFC glucuronidation” value in test [1] (inhibitor 100 μM) is 79 (1) %; in test [1] (inhibitor 200 μM), 67 (3) %; in test [1] (inhibitor 500 μM), 42 (0), % and 42 (0) %. The “residual metabolism (percentage of control), zidovudine glucuronidation” value in test [2] (inhibitor 500 μM) is 95 (5) %.
